In patent US20110014204A1, “Cancer Chemoprevention Strategy Based on Loss of Imprinting of IGF2” (priority 2006, published 2011):

How the values were obtained:
Akt/PKB = test: Microfluidic chamber single cell immunocytochemistry of Akt/PKB activation (phospho-Akt Ser 473) in LOI(+) and LOI(−) MEF cells; assay type: cell-based, mouse; settings: 60 min coincubation with 400 ng/ml IGF2 and 3 μM NVP-AEW541
Method: (A) Akt/PKB activation was assayed by single cell immunocytochemistry with an antibody to phosphorylated Akt (Ser 473), in a monolithic 2-layer PDMS chip sealed with a glass coverslip, with defined media delivery controlled by a multiplexed system of valves. Live LOI(+) and LOI(−) MEF cells were stimulated within the microfluidic chips with varying doses of IGF2, with measurements at multiple time points at each IGF2 concentration. […] For each cell type, IGF2 concentration, and time point, at least 200 individual cellular measurements were obtained by digital imaging and analysis. (B) Inhibition of Akt activation by NVP-AEW541. The cells were assayed as in (A) at 60 min after coincubation with 400 ng/ml IGF2 and 3 μM NVP-AEW541 and compared with the unstimulated control. Each bar is based on measurements of >400 cells. Asterisk indicates statistical difference vs LOI(+) control (t test, P<0.001) (C) Single cell analysis of ERK activation by IGF2 in LOI(+) and LOI(−) MEF cells. Erk activation was assayed by single immunocytochemistry within microfluidic chips using an antibody to phosphorylated Erk2 from Upstate (Charlottesville, Va.). LOI(+) cells (gray) and LOI(−) cells (black) were exposed to 400 ng/ml IGF2 for indicated times. […] Error bars represent SD. Standard error bars are completely subsumed by the symbols on this scale. (D) Gene expression levels in mouse embryonic fibroblasts. Quantitative real-time PCR was performed on LOI(+) and LOI(−) MEF cells, with expression normalized to transferring receptor expression. The expression level in LOI(+) samples (black) relative to LOI(−) samples (gray) is shown. The bars indicate standard error.
The immunostaining automation device consists of a monolithic 2-layer PDMS chip sealed with a glass coverslip, fabricated using techniques described previously (Unger et al., Science 288 (2000) 288:113-116). Multiplexing valves were actuated by pressure lines connected to off-device solenoid valves. The chip architecture, performance and validation are all described in a separate manuscript submitted for publication. The glass substrate of the cell culture chamber was coated by introducing 0.1% gelatin (Sigma) into the device for at least 30 minutes, then cells were introduced and allowed to attach for 3 hours. IGF2 (StemCell Technologies) dissolved in cell media was introduced to each chamber at different times so that the end of all stimulation periods coincided. To end the experiment, ice-cold PBS (Invitrogen) was introduced into all chambers followed immediately by 4% paraformaldehyde (Electron Microscopy Systems) for 20 minutes. Cells were permeabilized with 0.1% Triton X-100 (Sigma) for 5 min and blocked with 10% goat serum (Sigma), with PBS washes in between. […] Using custom MATLAB (Mathworks) programs, the images were […], stitched together, and quantified. […] For each cell type and time point, 200-300 cells were analyzed in this manner to ensure statistical significance.
Since both the endogenous IGF2 and IGF2 used in the MEF experiments are susceptible to IGF2 binding protein (IBP)-based inactivation, the dose of an IBP-resistant IGF2 variant was determined producing similar levels of Akt activation. […]

mouse ES cells = test: IGF2 stimulation of mouse ES cells, gene expression by real-time RT-PCR, with or without NVP-AEW541; assay type: cell-based; settings: 800 ng/ml Igf2, 3 μM NVP-AEW541, all time points
Method: Mouse ES cells were cultured in defined medium and treated with 800 ng/ml mouse lgf2 protein. Gene expression was analyzed by real-time RT-PCR and normalized to β-actin. Shown is the expression level without (black boxes) and with (gray boxes) the IGF1R inhibitor 3 μM NVP-AEW541 (a pyrrolo-2,3d-pyrimidine), normalized to time 0. The bars indicate standard error.
Mouse ES cells were cultured in defined medium and treated with 800 ng/ml mouse lgf2 protein. Gene expression was analyzed by real-time RT-PCR and normalized to β-actin. Shown is the expression level without (black boxes) and with (pink boxes) the IGF1R R inhibitor 3 μM NVP-AEW541, normalized to time 0. The bar represents standard error.
For IGF2 stimulation, wild type ES cells were isolated as described above, and cultured in ESGRO Complete Basal Medium with 800 ng/ml of mouse Igf2 recombinant protein (StemCell Technologies), with or without 3 μM NVP-AEW541 (Novartis). Cells were washed with PBS twice and RNA was extracted using the RNeasy Kit (QIAGEN) at Oh, 3 h, 6 h, 10 h, and 24 h. Gene expression was assayed by real-time quantitative RT-PCR as described above.
It remained theoretically possible that the observed difference in gene expression simply reflected the over-representation of progenitor cells within the intestinal crypts, rather than a change in cellular gene expression per se. To confirm the latter, mouse embryonic stem (ES) cells were derived and plated in ESGRO Complete Clonal Grade defined medium (Chemicon), which contains no IGF2 and allows growth of undifferentiated ES cells without a feeder layer, which was done with or without 800 ng/ml of mouse Igf2 recombinant protein (StemCell Technologies). Consistent with the microarray experiments, Igf2 induced a 50% and 56% increase in Cdc6 gene expression at 3 and 6 hours, respectively, and 40% and 25% at 10 and 24 hours, respectively (FIG. 3).

## Nc1ncnc2c1c(-c1cccc(OCc3ccccc3)c1)cn2C1CC(CN2CCC2)C1 (stereo not drawn) [NVP-AEW541]
Akt/PKB; LOI(+) MEF cells
  inhibition of IGF2-triggered Akt activation: significantly below the baseline
Akt/PKB; LOI(−) MEF cells
  inhibition of IGF2-triggered Akt activation: inhibited to the baseline levels
Mouse ES cells
  effect on IGF2-induced increased expression of Cdc6: completely abrogated
